Assay results published in patent US7109243B2 (IRM LLC, priority 2003, dated 2006).

Legend:
[1] = molecular target: Cathepsin S (Homo sapiens, UniProt P25774); test: Cathepsin S inhibition assay (fluorogenic peptide substrate); assay type: biochemical; settings: Table II, compounds of Formula I; read-out: Ki Cat. S
Method in brief: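 Ki values come from nonlinear fitting of inhibited hydrolysis rates, taking free and total inhibitor concentrations as equal. Rates measured as rising fluorescence at 380/450 nm after reaction start with 50 μM final acetyl-HPVK-aminocarbamoylcoumarin.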

[2] = molecular target: T1, Cathepsin K (Homo sapiens, UniProt P43235); test: Cathepsin K inhibition assay (fluorogenic peptide substrate); selectivity ratio vs cathepsin S; assay type: biochemical; settings: ratio of cathepsin K inhibition constant to cathepsin S inhibition constant; Table II
T1 sequence (P43235 115-329): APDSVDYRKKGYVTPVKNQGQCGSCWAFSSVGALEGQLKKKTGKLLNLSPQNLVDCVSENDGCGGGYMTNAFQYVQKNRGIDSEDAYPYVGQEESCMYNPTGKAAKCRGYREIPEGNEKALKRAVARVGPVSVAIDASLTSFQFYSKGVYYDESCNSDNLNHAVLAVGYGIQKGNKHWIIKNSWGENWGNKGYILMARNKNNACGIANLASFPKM
Method in brief: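 Fluorogenic kinetic assay, started with acetyl-Lys-His-Pro-Lys-aminocarbamoylcoumarin at 40 μM final, hydrolysis followed at ex 380/em 450 nm. Apparent inhibition constants from progress curves, converted to competitive inhibition constants. Selectivity expressed as isozyme inhibition constant divided by cathepsin S inhibition constant.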

Chain of Cathepsin S (P25774 115-331, species assumed): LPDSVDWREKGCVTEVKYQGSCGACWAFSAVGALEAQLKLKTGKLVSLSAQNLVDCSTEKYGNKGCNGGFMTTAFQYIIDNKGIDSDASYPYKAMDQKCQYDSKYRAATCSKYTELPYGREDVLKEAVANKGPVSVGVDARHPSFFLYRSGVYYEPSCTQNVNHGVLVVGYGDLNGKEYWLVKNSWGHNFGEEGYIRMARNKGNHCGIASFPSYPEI

## COc1ccc(NCCNC(=O)[C@H](Cc2ccc(O)cc2)NC(=O)c2cccc(C)c2)cc1 [Compound 228, (S)-N-{2-(4-Hydroxy-phenyl)-1-[2-(4-methoxy-phenylamino)-ethylcarbamoyl]-ethyl}-3-methyl-benzamide]
[1]
  Ki: < 100 nM
[2]
  Selectivity for Cat. S over Cat. K: +++ (+++, >1000)

## Cc1ccc(-c2ccc(C(=O)N[C@@H](CC3CCCCC3)C(=O)NCCNc3ccc(OC(F)(F)F)cc3)o2)cc1 [Compound 70, 5-p-Tolyl-furan-2-carboxylic acid (S)-{2-cyclohexyl-1-[2-(4-trifluoromethoxy-phenylamino)-ethylcarbamoyl]-ethyl}-amide]
[1]
  Ki: < 100 nM
[2]
  Selectivity for Cat. S over Cat. K: +++ (+++, >1000)

## COc1ccc(NCCNC(=O)C(NC(=O)c2cccc(C)c2)c2ccc(F)cc2)cc1 (stereo not drawn) [Compound 227, N-{(4-Fluoro-phenyl)-[2-(4-methoxy-phenylamino)-ethylcarbamoyl]-methyl}-3-methyl-benzamide]
[1]
  Ki: < 1000 nM
[2]
  Selectivity for Cat. S over Cat. K: ++ (++, >100)

## O=C(N[C@@H](CC1CCCCC1)C(=O)NCCNc1ccc(F)cc1)C(c1ccccc1)c1ccccc1 [Compound 307, 3-Cyclohexyl-2-(S)-diphenylacetylamino-N-[2-(4-fluoro-phenylamino)-ethyl]-propionamide]
[1]
  Ki: < 100 nM
[2]
  Selectivity for Cat. S over Cat. K: +++ (+++, >1000)

## O=C(Cc1cc(F)cc(F)c1)N[C@@H](CC1CCCCC1)C(=O)NCCNc1ccc(F)cc1 [Compound 125, 3-Cyclohexyl-2-(S)-[2-(3,5-difluoro-phenyl)-acetylamino]-N-[2-(4-fluoro-phenylamino)-ethyl]-propionamide]
[1]
  Ki: < 100 nM
[2]
  Selectivity for Cat. S over Cat. K: ++ (++, >100)

## COc1ccc(NCCNC(=O)[C@H](Cc2ccc(Oc3cccc(C)c3)cc2)NC(=O)c2cccc(C)c2)cc1 [Compound 267, (S)-N-[1-[2-(4-Methoxy-phenylamino)-ethylcarbamoyl]-2-(4-m-tolyloxy-phenyl)-ethyl]-3-methyl-benzamide]
[1]
  Ki: < 100 nM
[2]
  Selectivity for Cat. S over Cat. K: +++ (+++, >1000)

## COc1ccc(NCCNC(=O)[C@H](Cc2ccccc2)NC(=O)c2ccncc2)cc1 [Compound 64, (S)-N-{1-[2-(4-Methoxy-phenylamino)-ethylcarbamoyl]-2-phenyl-ethyl}-isonicotinamide]
[1]
  Ki: < 10000 nM
[2]
  Selectivity for Cat. S over Cat. K: + (+, >10)

## O=C(Cn1cnnn1)N[C@@H](CC1CCCCC1)C(=O)NCCNc1ccc(F)cc1 [Compound 265, 3-Cyclohexyl-N-[2-(4-fluoro-phenylamino)-ethyl]-2-(S)-(2-tetrazol-1-yl-acetylamino)-propionamide]
[1]
  Ki: < 1000 nM
[2]
  Selectivity for Cat. S over Cat. K: ++ (++, >100)

## COc1ccc(NCCNC(=O)[C@H](Cc2ccc(-c3cccnc3)cc2)NC(=O)c2cccc(C)c2)cc1 [Compound 274, (S)-N-[1-[2-(4-Methoxy-phenylamino)-ethylcarbamoyl]-2-(4-pyridin-3-yl-phenyl)-ethyl]-3-methyl-benzamide]
[1]
  Ki: < 100 nM
[2]
  Selectivity for Cat. S over Cat. K: +++ (+++, >1000)

## COc1ccc(NCCNC(=O)[C@H](CCC2CCCCC2)NC(=O)c2sc(N)nc2C)cc1 [Compound 133, (S)-2-Amino-4-methyl-thiazole-5-carboxylic acid {3-cyclohexyl-1-[2-(4-methoxy-phenylamino)-ethylcarbamoyl]-propyl}-amide]
[1]
  Ki: < 1000 nM
[2]
  Selectivity for Cat. S over Cat. K: ++ (++, >100)

## O=C(N[C@@H](CC1CCCCC1)C(=O)NCCNc1ccc(OC(F)(F)F)cc1)C1CN(Cc2ccccc2)CCO1 (stereo partly drawn) [Compound 32, 4-Benzyl-morpholine-2-carboxylic acid (S)-{2-cyclohexyl-1-[2-(4-trifluoromethoxy-phenylamino)-ethylcarbamoyl]-ethyl}-amide]
[1]
  Ki: < 100 nM
[2]
  Selectivity for Cat. S over Cat. K: + (+, >10)

## COc1ccc(NCCNC(=O)[C@H](Cc2ccc(-c3ccsc3)cc2)NC(=O)c2cccc(C)c2)cc1 [Compound 275, (S)-N-[1-[2-(4-Methoxy-phenylamino)-ethylcarbamoyl]-2-(4-thiophen-3-yl-phenyl)-ethyl]-3-methyl-benzamide]
[1]
  Ki: < 100 nM
[2]
  Selectivity for Cat. S over Cat. K: +++ (+++, >1000)

## COc1ccc(NCCNC(=O)[C@H](Cc2ccc(OCc3c(Cl)cccc3Cl)cc2)NC(=O)c2cccc(C)c2)cc1 [Compound 248, (S)-N-{2-[4-(2,6-Dichloro-benzyloxy)-phenyl]-1-[2-(4-methoxy-phenylamino)-ethylcarbamoyl]-ethyl}-3-methyl-benzamide]
[1]
  Ki: < 100 nM
[2]
  Selectivity for Cat. S over Cat. K: +++ (+++, >1000)

## O=C(Cn1cnnn1)N[C@@H](CC1CCCCC1)C(=O)NCCNc1ccc(OC(F)(F)F)cc1 [Compound 46, 3-Cyclohexyl-2-(S)-(2-tetrazol-1-yl-acetylamino)-N-[2-(4-trifluoromethoxy-phenylamino)-ethyl]-propionamide]
[1]
  Ki: < 1000 nM
[2]
  Selectivity for Cat. S over Cat. K: ++ (++, >100)

## COc1ccc(NCCNC(=O)[C@H](CC2CCCCC2)NC(=O)c2cc(F)ccc2C)cc1 [Compound 157, (S)-N-{2-Cyclohexyl-1-[2-(4-methoxy-phenylamino)-ethylcarbamoyl]-ethyl}-5-fluoro-2-methyl-benzamide]
[1]
  Ki: < 100 nM
[2]
  Selectivity for Cat. S over Cat. K: +++ (+++, >1000)

## Cc1cc(C)nc(N2CCC(C(=O)N[C@@H](CC3CCCCC3)C(=O)NCCNc3ccc(OC(F)(F)F)cc3)CC2)n1 [Compound 72, 1-(4,6-Dimethyl-pyrimidin-2-yl)-piperidine-4-carboxylic acid (S)-{2-cyclohexyl-1-[2-(4-trifluoromethoxy-phenylamino)-ethylcarbamoyl]-ethyl}-amide]
[1]
  Ki: < 10000 nM
[2]
  Selectivity for Cat. S over Cat. K: ++ (++, >100)

## COc1ccc(NCCNC(=O)[C@H](Cc2ccc(Oc3ccc(Cl)c(Cl)c3)cc2)NC(=O)c2cccc(C)c2)cc1 [Compound 98, (S)-N-{2-[4-(3,4-Dichloro-phenoxy)-phenyl]-1-[2-(4-methoxy-phenylamino)-ethylcarbamoyl]-ethyl}-3-methyl-benzamide]
[1]
  Ki: < 1000 nM
[2]
  Selectivity for Cat. S over Cat. K: ++ (++, >100)

## CCCc1ccc(C(=O)N[C@@H](CC2CCCCC2)C(=O)NCCNc2ccc(OC)cc2)cc1 [Compound 151, (S)-N-{2-Cyclohexyl-1-[2-(4-methoxy-phenylamino)-ethylcarbamoyl]-ethyl}-4-propyl-benzamide]
[1]
  Ki: < 100 nM
[2]
  Selectivity for Cat. S over Cat. K: + (+, >10)

## COc1ccc(NCCNC(=O)C(NC(=O)c2cccc(C)c2)C(C)c2ccccc2)cc1 (stereo not drawn) [Compound 269, erythro-N-{1-[2-(4-Methoxy-phenylamino)-ethylcarbamoyl]-2-phenyl-propyl}-3-methyl-benzamide]
[1]
  Ki: < 10000 nM
[2]
  Selectivity for Cat. S over Cat. K: + (+, >10)

## O=C(N[C@@H](CC1CCCCC1)C(=O)NCCNc1ccc(OC(F)(F)F)cc1)c1ccc(-c2cccc(F)c2)s1 [Compound 36, 5-(3-Fluoro-phenyl)-thiophene-2-carboxylic acid (S)-{2-cyclohexyl-1-[2-(4-trifluoromethoxy-phenylamino)-ethylcarbamoyl]-ethyl}-amide]
[1]
  Ki: < 100 nM
[2]
  Selectivity for Cat. S over Cat. K: ++ (++, >100)

## COc1ccc(NCCNC(=O)[C@H](CC2CCCCC2)NC(=O)c2cc(-c3ccc(OC)cc3)cs2)cc1 [Compound 191, (S)-4-(4-Methoxy-phenyl)-thiophene-2-carboxylic acid {2-cyclohexyl-1-[2-(4-methoxy-phenylamino)-ethylcarbamoyl]-ethyl}-amide]
[1]
  Ki: < 100 nM
[2]
  Selectivity for Cat. S over Cat. K: + (+, >10)
